Data from patent US20020128321A1, “IL-8 receptor antagonists” (SmithKline Beecham Corporation, priority 1996, published 2002).

Tested on: not given
Test: not given
Details: not given

Compound	melting point
COC(=O)c1ccc(NC(=O)Nc2ccccc2)c(O)c1 [Example 1, N-[2-Hydroxy-4-(methoxycarbonyl)phenyl]-N′-phenyl urea]	188.4 to 188.8 °C
NC(=O)c1ccc(NC(=O)Nc2ccccc2)c(O)c1 [Example 3, 3-hydroxy-4-{[(phenylamino)carbonyl]amino}benzamide]	106.8 to 107.1 °C
O=C(Nc1cccc(C(F)(F)F)c1O)Nc1cccc(Cl)c1Cl [Example 203, N-(2-hydroxy-3-trifluoromethylphenyl)-N′-(2,3-dichlorophenyl)urea]	204.3 to 205.2 °C
O=C(Nc1ccccc1-c1ccccc1)Nc1cccc(C(F)(F)F)c1O [Example 204, N-(2-hydroxy-3-trifluoromethylphenyl)-N′-(2-phenylphenyl)urea]	136.7 to 137.3 °C
O=C(Nc1ccccc1Cl)Nc1cccc(C(F)(F)F)c1O [Example 213, N-(2-hydroxy-3-trifluoromethylphenyl)-N′-(2-chlorophenyl)urea]	179.3 °C
O=C(Nc1ccc([N+](=O)[O-])cc1O)Nc1ccccc1NS(=O)(=O)c1cccs1 [Example 216, N-[2-(2-thienylsulfonylamino)phenyl]-N′-(2-hydroxy-4-nitrophenyl)urea]	149 to 149.6 °C
O=C(Nc1ccc([N+](=O)[O-])cc1O)Nc1ccccc1OCc1ccncc1 [Example 222, N-[2-(4-Pyridylmethoxy)phenyl]-N′-(2-hydroxy-4-nitrophenyl)urea]	189.3 to 189.7 °C
N#Cc1ccc(NC(=O)Nc2ccccc2NCc2ccccc2)c(O)c1 [Example 232, N-(2-Hydroxy-4-cyanophenyl)-N′-(2-benzylaminophenyl)urea]	108.8 to 109.4 °C
O=C(Nc1ccc([N+](=O)[O-])cc1O)Nc1ccccc1NC(=O)c1ccccc1 [Example 236, N-[2-(Benzoylamino)phenyl]-N′-(2-hydroxy-4-nitrophenyl)urea]	188.7 to 189.3 °C

Continued, values first:

melting point	Compound
204.1 to 205.3 °C	O=C(Nc1ccc([N+](=O)[O-])cc1O)Nc1ccccc1Sc1ccccc1[N+](=O)[O-]
195.5 to 195.7 °C	O=C(Nc1ccccc1)Nc1ccc(F)cc1O [Example 4, N-(2-hydroxy-4-fluorophenyl)-N′-phenyl urea]
194.5 °C	O=C(Nc1ccccc1)Nc1ccccc1S [Example 5, 2-{[(phenylamino)carbonyl]amino}thiophenol]
172.6 to 173 °C	COc1ccsc1NC(=O)Nc1cc([N+](=O)[O-])ccc1O [Example 11, N-(2-hydroxy-5-nitrophenyl)-N′-(3-methoxy-2-thienyl)urea]
168.2 to 168.8 °C	O=C(NCCO)Nc1ccc([N+](=O)[O-])cc1O [Example 214, N-(2-Hydroxyethyl)-N′-(2-hydroxy-4-nitrophenyl)urea]
185.4 to 186.2 °C	O=C(Nc1ccc([N+](=O)[O-])cc1O)Nc1ccccc1OCc1cccnc1 [Example 221, N-[2-(3-Pyridylmethoxy)phenyl]-N′-(2-hydroxy-4-nitrophenyl)urea]
199.3 to 199.6 °C	COC(=O)Nc1ccccc1NC(=O)Nc1ccc([N+](=O)[O-])cc1O [Example 223, N-[2-(Methoxycarbonylamino)phenyl]-N′-(2-hydroxy-4nitrophenyl)urea]
193.5 to 194 °C	NC(=O)N(c1ccc([N+](=O)[O-])cc1O)c1ccccc1OCc1ccccn1 [Example 233, N′-[2-(2-Pyridylmethoxy)phenyl]-N′-(2-Hydroxy-4-nitrophenyl)urea]

Biological target: T1, recombinant IL-8 Rb, or Type II, receptor (permissive receptor) (Homo sapiens, UniProt P25025)
T1 construct: expressed in transfected cells; host or cells: Chinese hamster ovary cells (membrane preparation)
T1 sequence (P25025 1-360): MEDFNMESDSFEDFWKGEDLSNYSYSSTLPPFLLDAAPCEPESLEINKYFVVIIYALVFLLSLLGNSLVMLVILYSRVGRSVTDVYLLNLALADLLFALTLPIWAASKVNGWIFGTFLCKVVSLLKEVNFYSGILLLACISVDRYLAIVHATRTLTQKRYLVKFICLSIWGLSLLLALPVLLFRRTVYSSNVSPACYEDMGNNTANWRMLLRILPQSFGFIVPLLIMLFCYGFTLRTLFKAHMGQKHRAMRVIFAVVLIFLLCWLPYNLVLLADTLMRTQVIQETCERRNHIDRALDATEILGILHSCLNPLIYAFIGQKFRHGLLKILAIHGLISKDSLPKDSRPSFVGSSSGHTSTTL
Test: Receptor binding assay, 125I IL-8, permissive (Type II) receptor
Details: concentration at which active
Text: [^125I] IL-8 (human recombinant) was obtained from Amersham Corp., Arlington Heights, Ill., with specific activity 2000 Ci/mmol. Gro-a was obtained from NEN-New England Nuclear. All other chemicals were of analytical grade. High levels of recombinant human IL-8 type a and b receptors were individually expressed in Chinese hamster ovary cells as described previously (Holmes, et al., Science, 1991, 253, 1278). The Chinese hamster ovary membranes were homogenized according to a previously described protocol (Haour, et al., J Biol Chem., 249 pp 2195-2205 (1974)). Except that the homogenization buffer was changed to 10 mM Tris-HCL, 1 mM MgS04, 0.5 mM EDTA (ethylene-diaminetetra-acetic acid), 1 m MPMSF (a-toluenesulphonyl fluoride), 0.5 mg/L Leupeptin, pH 7.5. Membrane protein concentration was determined using Pierce Co. micro-assay kit using bovine serum albumin as a standard. All assays were performed in a 96-well micro plate format. Each reaction mixture contained ^125I IL-8 (0.25 nM) or ^125I Gro-a and 0.5 μg/mL of IL-8Ra or 1.0 μg/mL of IL-8Rb membranes in 20 mM Bis-Trispropane and 0.4 mM Tris HCI buffers, pH 8.0, containing 1.2 mM MgSO4, 0.1 mM EDTA, 25 mM NaCl and 0.03% CHAPS. […] The filter was then dried and counted on the Betaplate liquid scintillation counter. […]

found to be active at (IL-8 receptor inhibition)	Compound
about 75 μg/mL	Cc1cc(Cl)ccc1NC(=O)Nc1ccccc1C(=O)O [1-(2-Carboxyphenyl)-3-(4-chloro-2-methylphenyl)urea]
